Source: publication PMC9471048, “The signaling and selectivity of α‐adrenoceptor agonists for the human α2A, α2B and α2C‐adrenoceptors and comparison with human α1 and β‐adrenoceptors” (Pharmacology Research & Perspectives, 2022)
Where two headings read alike, the source gives them in different places.

Experiments:
human α2C‐adrenoceptor [1] = biological target: T1, human α2C‐adrenoceptor (Homo sapiens, UniProt P18825)
T1 sequence (P18825 1-462): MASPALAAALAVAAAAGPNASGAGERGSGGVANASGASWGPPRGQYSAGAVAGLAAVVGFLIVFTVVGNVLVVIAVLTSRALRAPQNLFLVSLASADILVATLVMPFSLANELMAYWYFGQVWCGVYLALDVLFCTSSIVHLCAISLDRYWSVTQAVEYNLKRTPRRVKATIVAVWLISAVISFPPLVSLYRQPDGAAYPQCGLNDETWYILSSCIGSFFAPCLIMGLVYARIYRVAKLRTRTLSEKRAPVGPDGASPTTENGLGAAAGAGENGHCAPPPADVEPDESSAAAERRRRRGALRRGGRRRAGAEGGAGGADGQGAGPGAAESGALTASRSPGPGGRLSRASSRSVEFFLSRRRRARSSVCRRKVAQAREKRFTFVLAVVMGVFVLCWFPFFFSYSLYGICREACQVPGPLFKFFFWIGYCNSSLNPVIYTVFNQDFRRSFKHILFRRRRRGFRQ

human α2A‐adrenoceptor [2] = biological target: T2, human α2A‐adrenoceptor (Homo sapiens, UniProt P08913); settings: for % inhibition, CRE-SPAP (with forskolin): from 3 μM forskolin control; for % inhibition, CRE‐SPAP (with forskolin): % inhibition from the 3 μM forskolin control, inhibition only
T2 sequence (P08913 1-465): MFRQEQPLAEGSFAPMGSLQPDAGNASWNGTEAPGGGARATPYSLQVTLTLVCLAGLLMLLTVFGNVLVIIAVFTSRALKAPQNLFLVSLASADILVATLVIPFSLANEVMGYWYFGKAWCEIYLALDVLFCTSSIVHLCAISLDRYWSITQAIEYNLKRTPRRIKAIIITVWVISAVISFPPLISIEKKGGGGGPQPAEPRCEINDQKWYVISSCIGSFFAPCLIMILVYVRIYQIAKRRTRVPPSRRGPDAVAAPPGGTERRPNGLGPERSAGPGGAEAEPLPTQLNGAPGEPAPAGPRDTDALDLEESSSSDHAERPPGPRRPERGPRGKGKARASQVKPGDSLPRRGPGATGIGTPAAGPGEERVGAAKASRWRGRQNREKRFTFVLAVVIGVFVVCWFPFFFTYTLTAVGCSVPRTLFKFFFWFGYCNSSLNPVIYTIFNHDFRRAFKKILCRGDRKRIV

human α2C‐adrenoceptor [3] = biological target: T1, human α2C‐adrenoceptor; assay: 3H‐rauwolscine whole cell binding in CHO‐α2C cells; set-up: expressed in transfected cells; host or cells: CHO-K1 with CRE-SPAP reporter
human α2C‐adrenoceptor [4] = biological target: T1, human α2C‐adrenoceptor; assay: ERK1/2‐phosphorylation in CHO‐α2C cells; assay type: cell-based; set-up: expressed in transfected cells; host or cells: CHO-K1 with CRE-SPAP reporter
human α2A‐adrenoceptor [5] = biological target: T2, human α2A‐adrenoceptor; assay: ERK1/2‐phosphorylation in CHO‐α2A cells; assay type: cell-based; set-up: expressed in transfected cells; host or cells: CHO-K1 with CRE-SPAP reporter
human α2A‐adrenoceptor [6] = biological target: T2, human α2A‐adrenoceptor; assay: 3H‐rauwolscine whole cell binding in CHO‐α2A cells; set-up: expressed in transfected cells; host or cells: CHO-K1 with CRE-SPAP reporter; settings: for Selectivity ratio α2A vs α2B (higher affinity for α2A) / Selectivity ratio α2A vs α2C (higher affinity for α2A): fold, from KD values, 1 = no selectivity
[7] = CHO‐α2C cells, % inhibition from the 3 μM forskolin control, mean ± SEM
[8] = CHO‐α2C cells, CRE‐SPAP production in the absence of forskolin
[9] = CHO‐α2C cells, log KD from 3H‐rauwolscine binding versus CRE‐SPAP log IC50
[10] = Log IC50 (Gi), CRE‐SPAP (with forskolin), CHO‐α2C cells, inhibition of 3 μM forskolin‐stimulated CRE‐SPAP production, given as negative log IC50, mean ± SEM
[11] = CHO‐α2A (cell line 1), absence of forskolin
[12] = CHO‐α2A, binding KD / Gi IC50 of CRE‐SPAP
[13] = 3H‐rauwolscine whole cell binding, living cells, negative log KD, mean ± SEM, read-out: Log KD, CHO‐α2C (converted)
[14] = CHO‐α2C cells, 3H‐rauwolscine whole cell binding, given as negative log KD, mean only (SEM in Table 4), read-out: Log KD (converted)
[15] = fold, from KD values, 1 = no selectivity
[16] = CHO‐α2C cells, maximum response compared to 10 μM PDBu, mean ± SEM
[17] = CHO‐α2C cells, given as negative log EC50, mean ± SEM, read-out: Log EC50, ERK1/2‐phosphorylation (converted)
[18] = CHO‐α2A, maximum response compared to 10 μM PDBu
[19] = CHO‐α2A, read-out: Log EC50, ERK1/2‐phosphorylation (converted)
[20] = 3H‐rauwolscine whole cell binding, living cells, negative log KD, mean ± SEM, read-out: Log KD, CHO‐α2A (converted)
[21] = CHO‐α2A, 3H‐rauwolscine whole cell binding, given as negative log KD, read-out: Log KD (binding) (converted)

c1ccc2c(CC3=NCCN3)cccc2c1 [Naphazoline]
% inhibition, CRE‐SPAP (with forskolin) (human α2C‐adrenoceptor [1]; [7]): 81.3 ± 4.2%
Log EC50 (Gs), CRE‐SPAP (without forskolin) (human α2C‐adrenoceptor [1]; [8]): No response
Log efficacy ratio (KD/IC50) (human α2C‐adrenoceptor [1]; [9]): 0.72
IC50 (human α2C‐adrenoceptor [1]; [10]): 75.9 nM
% inhibition, CRE-SPAP (with forskolin) (human α2A‐adrenoceptor [2]; CHO-α2A cell line 2, 4724 fmol/mg protein): 69.4 ± 5.8%
% inhibition, CRE-SPAP (with forskolin) (human α2A‐adrenoceptor [2]; CHO-α2A cell line 3, 121 fmol/mg protein): 24.8 ± 4.3%
% inhibition, CRE‐SPAP (with forskolin) (human α2A‐adrenoceptor [2]; CHO‐α2A (cell line 1)): 83.1 ± 3.6%
Log EC50 (Gs), CRE‐SPAP (without forskolin) (human α2A‐adrenoceptor [2]; [11]): No response
Log efficacy ratio (KD/IC50) (human α2A‐adrenoceptor [2]; [12]): 0.78
IC50 (human α2A‐adrenoceptor [2]; Log IC50 (Gi), CRE-SPAP (with forskolin), CHO-α2A cell line 2, expression 4724 fmol/mg protein, 3 μM forskolin): 57.5 nM
IC50 (human α2A‐adrenoceptor [2]; Log IC50 (Gi), CRE-SPAP (with forskolin), CHO-α2A cell line 3, expression 121 fmol/mg protein, 3 μM forskolin): 417 nM
IC50 (human α2A‐adrenoceptor [2]; Log IC50 (Gi), CRE‐SPAP (with forskolin), CHO‐α2A (cell line 1, 5830 fmol/mg protein), 3 μM forskolin): 16.2 nM
Kd (human α2C‐adrenoceptor [3]; [13]): 398 nM
Kd (human α2C‐adrenoceptor [3]; [14]): 398 nM
Selectivity ratio α2B vs α2C (higher affinity for α2C) (human α2C‐adrenoceptor [3]; [15]): 4.0
% 10 μM PDBu, ERK1/2‐phosphorylation (human α2C‐adrenoceptor [4]; [16]): 157.8 ± 12.6%
EC50 (human α2C‐adrenoceptor [4]; [17]): 12.6 nM
% 10 μM PDBu, ERK1/2‐phosphorylation (human α2A‐adrenoceptor [5]; [18]): 118.1 ± 9.0%
EC50 (human α2A‐adrenoceptor [5]; [19]): 1.91 nM
Kd (human α2A‐adrenoceptor [6]; [20]): 0.0977 µM
Kd (human α2A‐adrenoceptor [6]; [21]): 0.0977 µM
Selectivity ratio α2A vs α2B (higher affinity for α2A) (human α2A‐adrenoceptor [6]): 16.2
Selectivity ratio α2A vs α2C (higher affinity for α2A) (human α2A‐adrenoceptor [6]): 4.1

Cc1cccc(C)c1N=C1NCCCS1 [Xylazine]
% inhibition, CRE‐SPAP (with forskolin) (human α2C‐adrenoceptor [1]): 81.8 ± 3.6%
IC50 (human α2C‐adrenoceptor [1]): 178 nM
Log EC50 (Gs), CRE‐SPAP (without forskolin) (human α2C‐adrenoceptor [1]): No response
Log efficacy ratio (KD/IC50) (human α2C‐adrenoceptor [1]): 1.53
EC50 (human α2A‐adrenoceptor [2]): 8.51 µM
IC50 (human α2A‐adrenoceptor [2]): 288 nM
Log EC50 (Gs), CRE‐SPAP (without forskolin) (human α2A‐adrenoceptor [2]): No response
Log efficacy ratio (KD/IC50) (human α2A‐adrenoceptor [2]): 1.60
Kd (human α2C‐adrenoceptor [3]): 6030 nM
Selectivity ratio α2A vs α2C (higher affinity for α2C) (human α2C‐adrenoceptor [3]): 1.9
Selectivity ratio α2B vs α2C (higher affinity for α2C) (human α2C‐adrenoceptor [3]): 1.0
Kd (human α2C‐adrenoceptor [3]; Log KD, CHO‐α2C): 6030 nM
% 10 μM PDBu, ERK1/2‐phosphorylation (human α2C‐adrenoceptor [4]): 168.2 ± 22.8%
EC50 (human α2C‐adrenoceptor [4]): 72.4 nM
% 10 μM PDBu, ERK1/2‐phosphorylation (human α2A‐adrenoceptor [5]): 128.3 ± 15.7%
EC50 (human α2A‐adrenoceptor [5]): 30.2 nM
Kd (human α2A‐adrenoceptor [6]): 11.5 µM
Kd (human α2A‐adrenoceptor [6]; Log KD, CHO‐α2A): 11.5 µM

NCC(O)c1ccc(O)cc1 (stereo not shown) [Octopamine]
IC50 (human α2C‐adrenoceptor [1]): 52500 nM
% inhibition, CRE‐SPAP (with forskolin) (human α2C‐adrenoceptor [1]; [7]): 86.3 ± 5.2%
Log EC50 (Gs), CRE‐SPAP (without forskolin) (human α2C‐adrenoceptor [1]; [8]): No response
IC50 (human α2A‐adrenoceptor [2]): 132000 nM
% inhibition, CRE‐SPAP (with forskolin) (human α2A‐adrenoceptor [2]; CHO‐α2A (cell line 1)): 98.1 ± 5.7%
Log EC50 (Gs), CRE‐SPAP (without forskolin) (human α2A‐adrenoceptor [2]; [11]): No response
IC50 (human α2C‐adrenoceptor [3]; 3H‐rauwolscine whole cell binding, no KD obtained, read-out: IC50 in binding, CHO‐α2C): ~1 mM
% 10 μM PDBu, ERK1/2‐phosphorylation (human α2C‐adrenoceptor [4]; [16]): 153.8 ± 17.9%
EC50 (human α2C‐adrenoceptor [4]; [17]): 7760 nM
% 10 μM PDBu, ERK1/2‐phosphorylation (human α2A‐adrenoceptor [5]; [18]): 124.1 ± 11.7%
EC50 (human α2A‐adrenoceptor [5]; [19]): 4790 nM
Kd (human α2A‐adrenoceptor [6]; 3H‐rauwolscine whole cell binding, ^app: apparent KD, IC50 from extrapolated curve as not all specific binding was inhibited, read-out: Log KD (apparent), CHO‐α2A (converted)): 417 µM
Kd (human α2A‐adrenoceptor [6]; [21]): 417 µM

c1ccc(C2CC2)c(OCC2=NCCN2)c1 [Cirazoline]
% inhibition, CRE‐SPAP (with forskolin) (human α2C‐adrenoceptor [1]; [7]): 74.2 ± 2.1%
Log EC50 (Gs), CRE‐SPAP (without forskolin) (human α2C‐adrenoceptor [1]; [8]): No response
Log efficacy ratio (KD/IC50) (human α2C‐adrenoceptor [1]; [9]): 0.41
IC50 (human α2C‐adrenoceptor [1]; [10]): 331 nM
IC50 (human α2A‐adrenoceptor [2]): 603 nM
% inhibition, CRE‐SPAP (with forskolin) (human α2A‐adrenoceptor [2]; CHO‐α2A (cell line 1)): 43.6 ± 4.4%
Log EC50 (Gs), CRE‐SPAP (without forskolin) (human α2A‐adrenoceptor [2]; [11]): No response
Log efficacy ratio (KD/IC50) (human α2A‐adrenoceptor [2]; [12]): −0.16
Kd (human α2C‐adrenoceptor [3]; [13]): 851 nM
Kd (human α2C‐adrenoceptor [3]; [14]): 851 nM
Selectivity ratio α2B vs α2C (higher affinity for α2C) (human α2C‐adrenoceptor [3]; [15]): 7.9
% 10 μM PDBu, ERK1/2‐phosphorylation (human α2C‐adrenoceptor [4]; [16]): 139.1 ± 10.2%
EC50 (human α2C‐adrenoceptor [4]; [17]): 83.2 nM
% 10 μM PDBu, ERK1/2‐phosphorylation (human α2A‐adrenoceptor [5]; [18]): 113.0 ± 14.3%
EC50 (human α2A‐adrenoceptor [5]; [19]): 158 nM
Kd (human α2A‐adrenoceptor [6]; [20]): 0.417 µM
Kd (human α2A‐adrenoceptor [6]; [21]): 0.417 µM
Selectivity ratio α2A vs α2B (higher affinity for α2A) (human α2A‐adrenoceptor [6]): 16.2
Selectivity ratio α2A vs α2C (higher affinity for α2A) (human α2A‐adrenoceptor [6]): 2.0
